# According to publication PMC9574855 (Journal of Medicinal Chemistry, 2022):
# Assays:
# [1] = system: LOK; conditions: 300 nM, KiNativ, Jurkat cell lysate; cited from earlier work
# [2] = system: ITPK1; conditions: 300 nM, KiNativ, Jurkat cell lysate; cited from earlier work
# [3] = system: 24 human lipid kinases and 83 human protein kinases; conditions: 300 nM, KiNativ; cited from earlier work
# [4] = system: His6-SARS-CoV-2 spike protein uptake by HEK293T-ACE2 cells; experiment: Spike uptake assay in HEK293T-ACE2 cells; type: cell-based, human; conditions: 1 μM
# [5] = system: His6-SARS-CoV-2 spike protein uptake by Calu-3 cells; experiment: Spike uptake assay in Calu-3 cells; type: cell-based; conditions: 1 μM
# [6] = system: His6-SARS-CoV-2 spike protein uptake by Caco-2 cells; experiment: Spike uptake assay in Caco-2 cells; type: cell-based; conditions: 1 μM
# [7] = system: lentivirus pseudotyped with the SARS-CoV-2 spike glycoprotein; type: cell-based; conditions: Calu-3 cells, 1 μM
# [8] = system: bald GFP lentivirus; type: cell-based; conditions: Calu-3 cells, 1 μM
# [9] = system: SH-SY5Y cells; experiment: Lysosomal staining; type: cell-based, human; conditions: 5 μM, 24 h
# [10] = system: 403 WT human kinases; conditions: 1 μM, published data, apilimod; cited from earlier work
Compound,inhibition of LOK [1],inhibition of ITPK1 [2],Gini coefficient [3],His6-SARS-CoV-2 spike protein uptake [4],His6-SARS-CoV-2 spike protein uptake [5],His6-SARS-CoV-2 spike protein uptake [6],entry of lentivirus pseudotyped with SARS-CoV-2 spike glycoprotein [7],entry of bald lentivirus [8],vacuoles in LysoTracker-stained cells [9],# scanMAX kinases with PoC < 10 [10]
"Cc1cccc(/C=N/Nc2cc(N3CCOCC3)n3nc(-c4ccncc4)cc3n2)c1 [APY0201, 2-[7-(4-morpholinyl)-2-(4-pyridinyl)pyrazolo[1,5-a]pyrimidin-5-yl]hydrazone, 3-methyl-benzaldehyde]",> 50%,> 50%,0.753,–,–,–,–,–,–,–
"Cc1cccc(/C=N/Nc2cc(N3CCOCC3)nc(OCCc3ccccn3)n2)c1 [Apilimod, 4-(6-(2-(3-Methylbenzylidene)hydrazinyl)-2-(2-(pyridin-2-yl)ethoxy)pyrimidin-4-yl)morpholine, reference compound]",–,–,–,significantly reduced spike protein uptake,efficiently reduced spike protein uptake,efficiently reduced spike protein uptake,inhibition of pseudoviral entry,entry of bald lentivirus was not impacted,vacuoles are present,1
